Bounds are passed on as bounds.

Common to all, as to type: cell-based
One series concerns HBV. The series is described as follows: Anti-HBV activity in the AD-38 cell line using real-time quantitative PCR. The procedure: Anti-HBV activity of prodrugs of general formula 1 determination in the AD-38 cell line using a real-time quanitative PCR. a) Cell cultures. HepG2 AD38 cell line, harboring an integrated over-the-length HBV genomic DNA (Lander S, et. al, Antimicrobal Agents and Chemotherapy, 1997, pg. 1715-1720) were provided by Dr. C. Seeger, Fox Chase Cancer Center, Philadelphia, Pa.). Cells were grown in complete media (DMEM/F12 with 2 mM L-Glutamine (Thermo Scientific, Cat #11320033), 10% Fetal Bovine Serum (ThermoFisher Scientific, Cat#), 1% Antibiotic-antimitotic solution (ThermoFisher Scientific, Cat#15240096), and 0.3 μg/ml tetracyclin (Sigma, Cat # T7660-5G). Cells were plated onto Corning Biocoat 96-well plates (Corning, Cat #356407) in 225 ul of complete media (without teracyclin), 20000 cells/well. The prodrugs of general formula 1 were dissolved first in DMSO (Sigma cat. D2650), then in DMEM/F12 and 9 serial 3× dilutions were prepared and added to cells in 22.5 μl. The final prodrugs concentrations ranged from 10 μM to 1 nM. Cells grown in the presence of tetracyclin were used as a positive control, as HBV replication in this cell line is turned off by thetracyclin. Cell plates were incubated for 4 days at 37 C, 5% CO2. b) HBV DNA isolation. After 4 days, viral DNA was isolated from culture supernatants using PureLink® Pro 96 Genomic DNA Purification Kit (ThermoFisher Scientific, Cat # K183104A), according to manufacturer's recommendations. Eluted DNA samples were stored at −20 C. c) Quantitative real-time PCR (qPCR). PCR was performed on the CFX96™ Real-Time System (Bio-Rad, Hercules, Calif.) using AmpliTaq Gold® DNA Polymerase (Applied Biosystems®).
Ct values (cycle threshold) were obtained for each prodrug sample and normalized to untreated cells, according to formula E=(1/(1+100%))̂(Ct[studied prodrug sample]−Ct[K-]), where E is a normalized expression of studied gene, Ct[K-] and Ct[studied prodrug sample] are Ct values of untreated cells and studied prodrug sample. Inhibition curves were obtained and EC50 values were calculated using the Graph Prizm software (Table 3).

Series [1] can be described thus: Cytotoxicity (viability, CC50) reported with the anti-HBV test. Conditions: human, HepG2 AD38 cells.
A further series relates to HepG2 AD38 cell line. The series is described as above. Conditions: concentration not given.

A word on the EC50: it is the concentration at which the effect is half-maximal. The low end stands for a more potent agent, the high end for a less potent agent. One may read the CC50 as the concentration giving 50% cytotoxicity. Low values mean greater toxicity to the cells, high ones lower toxicity to the cells. `C=CCOC(=O)[C@H](C)N[P@](=O)(OC[C@@H]1O[C@H](n2cc(C)c(=O)[nH]c2=O)[C@H](F)[C@H]1O)Oc1ccccc1` [1.2(67), allyl (S)-2-{(S)-[(2S,3S,4R,5S)-4-fluoro-3-hydroxy-5-(5-methyl-2,4-dioxo-3,4-dihydro-2H-pyrimidin-1-yl)-tetrahydro-furan-2-ylmethoxy]-phenoxy-phosphorylamino}-propanoate] returned an EC50 in the series with HBV (Hepatitis B virus, 96 h) of 0.76 ± 0.11 µM. In the series with HBV (against HBV, concentration not given), the “inhibition, %” value stood at 88%. The CC50 in series [1] was above 30 µM. The “viability, %” value in the series with HepG2 AD38 cell line is 95%.
